Test results reported in PMC9005681, “Use of AD Informer Set compounds to explore validity of novel targets in Alzheimer's disease pathology” (Alzheimer's & Dementia : Translational Research & Clinical …, 2022).
Values joined by “and” are separate entries in the source; they are usually repeats but may differ in a detail not shown here. Identical values can stand only once.

Assays:
Assay in all cases: PDSP GPCR panel primary binding assays at 10 μM
Details in all cases: primary assay
[1] = molecular target: T1, cloned human or rodent CNS receptors, channels, and transporters (PDSP panel) (Homo sapiens, UniProt P08908)
T1 construct: expressed in transfected cells
T1 sequence (P08908 1-422): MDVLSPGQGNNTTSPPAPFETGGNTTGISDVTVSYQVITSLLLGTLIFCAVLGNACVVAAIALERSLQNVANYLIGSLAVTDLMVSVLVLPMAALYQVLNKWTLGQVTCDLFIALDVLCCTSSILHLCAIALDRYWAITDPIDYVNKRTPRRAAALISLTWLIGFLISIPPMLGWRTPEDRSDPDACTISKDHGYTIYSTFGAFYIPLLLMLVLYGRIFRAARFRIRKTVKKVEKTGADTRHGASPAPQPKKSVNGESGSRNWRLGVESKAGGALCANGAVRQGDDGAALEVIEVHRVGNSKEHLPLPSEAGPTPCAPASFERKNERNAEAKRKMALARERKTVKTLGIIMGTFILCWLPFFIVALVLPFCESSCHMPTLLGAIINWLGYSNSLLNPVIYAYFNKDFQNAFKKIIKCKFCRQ
Summary of the method: (§1)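 Radioligand displacement at cloned human or rodent CNS targets: 46–47 primary binding assays run in quadruplicate at 10 μM. Targets where the compound displaced an average of >50% of radiolabeled standard ligand went to secondary binding in 11-point dose-response, in triplicate; none run for H3, PBR or GABAA.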

[2] = molecular target: T2, cloned human or rodent CNS receptors, channels, and transporters (PDSP panel) (Homo sapiens, UniProt P08912)
T2 construct: expressed in transfected cells
T2 sequence (P08912 1-532): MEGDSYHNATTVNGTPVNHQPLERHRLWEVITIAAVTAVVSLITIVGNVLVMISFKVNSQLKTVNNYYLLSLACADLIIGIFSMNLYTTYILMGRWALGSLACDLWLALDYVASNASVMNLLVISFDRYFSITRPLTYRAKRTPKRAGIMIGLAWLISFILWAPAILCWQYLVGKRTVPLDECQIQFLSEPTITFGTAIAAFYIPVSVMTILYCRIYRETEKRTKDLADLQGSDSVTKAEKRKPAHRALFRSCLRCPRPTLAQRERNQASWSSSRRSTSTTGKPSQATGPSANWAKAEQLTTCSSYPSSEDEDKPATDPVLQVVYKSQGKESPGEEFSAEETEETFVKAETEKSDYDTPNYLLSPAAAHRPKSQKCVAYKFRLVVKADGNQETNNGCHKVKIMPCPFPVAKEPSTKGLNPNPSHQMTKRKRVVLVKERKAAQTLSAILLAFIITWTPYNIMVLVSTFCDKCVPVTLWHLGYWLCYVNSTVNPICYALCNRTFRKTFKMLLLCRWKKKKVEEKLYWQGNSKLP
Summary of the method: as §1

[3] = molecular target: T3, cloned human or rodent CNS receptors, channels, and transporters (PDSP panel) (Homo sapiens, UniProt P21917)
T3 construct: expressed in transfected cells
T3 sequence (P21917 1-419): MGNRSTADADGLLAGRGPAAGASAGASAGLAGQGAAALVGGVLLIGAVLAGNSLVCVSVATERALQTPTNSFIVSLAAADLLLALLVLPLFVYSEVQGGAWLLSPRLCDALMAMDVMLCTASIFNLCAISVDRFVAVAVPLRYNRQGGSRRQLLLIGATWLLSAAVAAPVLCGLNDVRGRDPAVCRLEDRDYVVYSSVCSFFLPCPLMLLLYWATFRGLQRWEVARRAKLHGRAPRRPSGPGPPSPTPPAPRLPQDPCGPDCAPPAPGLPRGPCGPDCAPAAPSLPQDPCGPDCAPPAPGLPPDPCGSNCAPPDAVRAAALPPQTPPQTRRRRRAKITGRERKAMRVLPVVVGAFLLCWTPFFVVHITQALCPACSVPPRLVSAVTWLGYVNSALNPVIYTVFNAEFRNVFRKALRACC
Summary of the method: as §1

[4] = molecular target: T4, cloned human or rodent CNS receptors, channels, and transporters (PDSP panel) (Homo sapiens, UniProt P28222)
T4 construct: expressed in transfected cells
Summary of the method: as §1

[5] = molecular target: T5, cloned human or rodent CNS receptors, channels, and transporters (PDSP panel) (Homo sapiens, UniProt P28223)
T5 construct: expressed in transfected cells
Summary of the method: as §1

[6] = molecular target: T6, cloned human or rodent CNS receptors, channels, and transporters (PDSP panel) (Homo sapiens, UniProt P31645)
T6 construct: expressed in transfected cells
Summary of the method: as §1

[7] = molecular target: T7, cloned human or rodent CNS receptors, channels, and transporters (PDSP panel) (Homo sapiens, UniProt P35367)
T7 construct: expressed in transfected cells
Summary of the method: as §1

[8] = molecular target: T8, cloned human or rodent CNS receptors, channels, and transporters (PDSP panel) (Homo sapiens, UniProt P41145)
T8 construct: expressed in transfected cells
Summary of the method: as §1

[9] = molecular target: T9, cloned human or rodent CNS receptors, channels, and transporters (PDSP panel) (Rattus norvegicus, UniProt P16257)
T9 construct: expressed in transfected cells
Summary of the method: as §1

T7 sequence (P35367 whole entry): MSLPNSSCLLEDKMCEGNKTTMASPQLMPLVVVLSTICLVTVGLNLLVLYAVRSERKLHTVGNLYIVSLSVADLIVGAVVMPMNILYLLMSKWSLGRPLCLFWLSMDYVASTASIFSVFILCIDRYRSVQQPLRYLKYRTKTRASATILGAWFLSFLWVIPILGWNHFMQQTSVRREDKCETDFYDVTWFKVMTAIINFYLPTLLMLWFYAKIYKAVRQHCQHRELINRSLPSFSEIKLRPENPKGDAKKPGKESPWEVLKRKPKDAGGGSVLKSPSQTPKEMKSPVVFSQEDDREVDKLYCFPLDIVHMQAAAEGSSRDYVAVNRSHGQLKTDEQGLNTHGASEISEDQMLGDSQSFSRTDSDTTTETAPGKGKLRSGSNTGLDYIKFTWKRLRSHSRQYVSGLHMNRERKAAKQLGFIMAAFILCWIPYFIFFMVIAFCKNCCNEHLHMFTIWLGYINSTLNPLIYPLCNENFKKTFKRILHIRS
T8 sequence (P41145 whole entry): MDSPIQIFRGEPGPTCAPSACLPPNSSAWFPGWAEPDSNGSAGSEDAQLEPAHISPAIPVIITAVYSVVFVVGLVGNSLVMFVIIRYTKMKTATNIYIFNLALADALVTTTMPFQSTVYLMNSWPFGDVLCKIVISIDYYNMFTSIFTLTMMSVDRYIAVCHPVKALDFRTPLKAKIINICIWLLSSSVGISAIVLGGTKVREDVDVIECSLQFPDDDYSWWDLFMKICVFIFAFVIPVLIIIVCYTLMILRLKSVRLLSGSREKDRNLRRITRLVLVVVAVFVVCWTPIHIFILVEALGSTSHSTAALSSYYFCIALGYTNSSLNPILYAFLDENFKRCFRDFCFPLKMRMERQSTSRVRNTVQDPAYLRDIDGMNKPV
T5 sequence (P28223 whole entry): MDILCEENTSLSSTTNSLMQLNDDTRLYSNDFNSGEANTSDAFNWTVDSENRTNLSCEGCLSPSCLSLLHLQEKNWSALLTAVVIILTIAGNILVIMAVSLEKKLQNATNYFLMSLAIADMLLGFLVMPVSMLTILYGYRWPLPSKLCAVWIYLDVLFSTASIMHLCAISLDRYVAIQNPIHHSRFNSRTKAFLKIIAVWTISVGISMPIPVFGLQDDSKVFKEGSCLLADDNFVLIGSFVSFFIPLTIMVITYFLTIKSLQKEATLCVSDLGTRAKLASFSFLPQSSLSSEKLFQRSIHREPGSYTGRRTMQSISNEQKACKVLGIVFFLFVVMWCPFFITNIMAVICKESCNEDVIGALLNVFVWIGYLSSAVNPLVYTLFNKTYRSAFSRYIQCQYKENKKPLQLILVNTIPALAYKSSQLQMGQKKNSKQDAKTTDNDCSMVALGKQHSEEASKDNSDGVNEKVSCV
T6 sequence (P31645 whole entry): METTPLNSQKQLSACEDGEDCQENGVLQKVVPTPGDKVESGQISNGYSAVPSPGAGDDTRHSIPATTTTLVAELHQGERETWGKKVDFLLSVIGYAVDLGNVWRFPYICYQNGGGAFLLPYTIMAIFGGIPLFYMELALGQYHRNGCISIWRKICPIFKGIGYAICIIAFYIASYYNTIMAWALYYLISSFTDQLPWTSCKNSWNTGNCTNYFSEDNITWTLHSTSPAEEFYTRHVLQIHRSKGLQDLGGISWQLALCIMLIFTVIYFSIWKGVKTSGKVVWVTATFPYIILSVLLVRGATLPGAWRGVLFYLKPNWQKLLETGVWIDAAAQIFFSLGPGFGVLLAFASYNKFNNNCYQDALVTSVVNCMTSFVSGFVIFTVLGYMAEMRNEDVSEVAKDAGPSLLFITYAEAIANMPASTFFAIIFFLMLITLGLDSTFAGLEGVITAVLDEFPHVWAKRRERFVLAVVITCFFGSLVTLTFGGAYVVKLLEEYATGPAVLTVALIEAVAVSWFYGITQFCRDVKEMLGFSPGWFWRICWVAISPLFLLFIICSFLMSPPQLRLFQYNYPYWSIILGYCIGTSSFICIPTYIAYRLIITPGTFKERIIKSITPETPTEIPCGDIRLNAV
T4 sequence (P28222 whole entry): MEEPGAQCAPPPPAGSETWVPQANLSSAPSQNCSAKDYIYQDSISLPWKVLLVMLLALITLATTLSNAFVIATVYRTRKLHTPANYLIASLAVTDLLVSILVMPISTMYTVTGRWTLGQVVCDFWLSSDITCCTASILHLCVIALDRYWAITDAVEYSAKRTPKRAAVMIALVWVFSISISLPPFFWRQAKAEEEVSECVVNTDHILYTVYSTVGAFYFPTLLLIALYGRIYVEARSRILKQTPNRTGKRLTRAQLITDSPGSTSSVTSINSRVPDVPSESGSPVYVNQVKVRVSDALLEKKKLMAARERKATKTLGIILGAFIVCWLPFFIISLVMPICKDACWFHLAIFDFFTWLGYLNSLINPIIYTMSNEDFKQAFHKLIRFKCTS

## Cl.NC(=O)c1cnc(N[C@@H]2CCCC[C@@H]2N)nc1Nc1cccc(-n2nccn2)c1 [UNC10302682A, P505-15 (PRT06207 HCl)]
[1]; Receptor 5-HT1A, 10 μM
  Inhibition 1: 35.42%
  Inhibition 2: 0.09%
  Inhibition 3: 1.29%
  Inhibition 4: 21.46%
[1]; Receptor 5-HT1A, 10 μM, mean of Inhibition 1-4
  Mean %: 14.57%
[2]; Receptor M5, 10 μM
  Inhibition 1: 25.92%
  Inhibition 2: 13.95%
  Inhibition 3: 6.2%
  Inhibition 4: -1.55%
[2]; Receptor M5, 10 μM, mean of Inhibition 1-4
  Mean %: 11.13%
[3]; Receptor D4, 10 μM
  Inhibition 1: 7.46%
  Inhibition 2: 12.14%
  Inhibition 3: 13.58%
  Inhibition 4: 14.53%
[3]; Receptor D4, 10 μM, mean of Inhibition 1-4
  Mean %: 11.93%
[4]; Receptor 5-HT1B, 10 μM
  Inhibition 1: 53.66%
  Inhibition 2: 22.41%
  Inhibition 3: 27.71%
  Inhibition 4: 32.24%
[4]; Receptor 5-HT1B, 10 μM, mean of Inhibition 1-4
  Mean %: 34.01%
[5]; Receptor 5-HT2A, 10 μM
  Inhibition 1: 13.95%
  Inhibition 2: 2.61%
  Inhibition 3: 8.53%
  Inhibition 4: 0.63%
[5]; Receptor 5-HT2A, 10 μM, mean of Inhibition 1-4
  Mean %: 6.43%
[6]; Receptor SERT, 10 μM
  Inhibition 2: 8.4% and 8.39%
  Inhibition 3: 11.88% and 10.26%
  Inhibition 4: 20.53% and 20.37%
[6]; Receptor SERT, 10 μM, mean of Inhibition 1-4
  Mean %: 14.96% and 10.68%
[7]; Receptor H1, 10 μM
  Inhibition 1: 100.99%
  Inhibition 2: 95.9%
  Inhibition 3: 86.08%
  Inhibition 4: 60.28%
[7]; Receptor H1, 10 μM, mean of Inhibition 1-4
  Mean %: 85.81%
[8]; Receptor KOR, 10 μM
  Inhibition 1: -6.83%
  Inhibition 2: -18.02%
  Inhibition 3: -46.91%
  Inhibition 4: -15.34%
[8]; Receptor KOR, 10 μM, mean of Inhibition 1-4
  Mean %: -21.78%
[9]; Receptor PBR, 10 μM
  Inhibition 1: 32.16% and 27.63%
  Inhibition 2: 2.97% and 6.1%
  Inhibition 4: 18.35% and 12.24%
[9]; Receptor PBR, 10 μM, mean of Inhibition 1-4
  Mean %: 14.68% and 16.23%

## CC(=O)N1CCC(NC(=O)NC23CC4CC(CC(C4)C2)C3)CC1 [UNC10302683A, AR9281]
[1]; 5-HT1A, mean inhibition
  Mean %: -6.08%
[1]; 5-HT1A, replicate 1
  Inhibition 1: 5.09%
[1]; 5-HT1A, replicate 2
  Inhibition 2: -13.88%
[1]; 5-HT1A, replicate 3
  Inhibition 3: -5.6%
[1]; 5-HT1A, replicate 4
  Inhibition 4: -9.91%
[2]; M5, mean inhibition
  Mean %: -4.97%
[2]; M5, replicate 1
  Inhibition 1: 0.06%
[2]; M5, replicate 2
  Inhibition 2: -4.77%
[2]; M5, replicate 3
  Inhibition 3: -10.3%
[2]; M5, replicate 4
  Inhibition 4: -4.87%
[3]; D4, mean inhibition
  Mean %: -0.6%
[3]; D4, replicate 1
  Inhibition 1: 1.15%
[3]; D4, replicate 2
  Inhibition 2: -3.44%
[3]; D4, replicate 3
  Inhibition 3: -3.44%
[3]; D4, replicate 4
  Inhibition 4: 3.35%
[4]; 5-HT1B, mean inhibition
  Mean %: -0.64%
[4]; 5-HT1B, replicate 1
  Inhibition 1: 23.19%
[4]; 5-HT1B, replicate 2
  Inhibition 2: -3.93%
[4]; 5-HT1B, replicate 3
  Inhibition 3: -10.42%
[4]; 5-HT1B, replicate 4
  Inhibition 4: -11.4%
[5]; 5-HT2A, mean inhibition
  Mean %: -3.07%
[5]; 5-HT2A, replicate 1
  Inhibition 1: -2.98%
[5]; 5-HT2A, replicate 2
  Inhibition 2: 1.29%
[5]; 5-HT2A, replicate 3
  Inhibition 3: -10.71%
[5]; 5-HT2A, replicate 4
  Inhibition 4: 0.14%
[6]; SERT, mean inhibition
  Mean %: -8.86% and -6.55%
[6]; SERT, replicate 1
  Inhibition 1: -9.63% and -17.8%
[6]; SERT, replicate 2
  Inhibition 2: -14.12% and -5.23%
[6]; SERT, replicate 3
  Inhibition 3: -7.44% and -8.27%
[6]; SERT, replicate 4
  Inhibition 4: -4.24% and 5.12%
[7]; H1, mean inhibition
  Mean %: 76.51%
[7]; H1, replicate 1
  Inhibition 1: 98.85%
[7]; H1, replicate 2
  Inhibition 2: 86%
[7]; H1, replicate 3
  Inhibition 3: 68.77%
[7]; H1, replicate 4
  Inhibition 4: 52.43%
[8]; KOR, mean inhibition
  Mean %: -25.19%
[8]; KOR, replicate 1
  Inhibition 1: -27.43%
[8]; KOR, replicate 2
  Inhibition 2: -29%
[8]; KOR, replicate 3
  Inhibition 3: -23.06%
[8]; KOR, replicate 4
  Inhibition 4: -21.27%
[9]; PBR, replicate 1
  Inhibition 1: 10.97% and 6.98%
[9]; PBR, replicate 2
  Inhibition 2: -9.87% and 57.06%
[9]; PBR, replicate 3
  Inhibition 3: -4.95% and 7.94%
[9]; PBR, replicate 4
  Inhibition 4: -4.51% and 19.02%
